Active and inactive are the calls of the source. The rule behind the calls is not given here.
What was measured:
[1] = Toxicity in C57BL/6 mouse assessed as median lethal dose administered intragastrically for 7 days; conditions: in vivo, po, time 7 day
[2] = Cytotoxicity against rat PC-12 cells assessed as cell viability at 50 uM incubated for 24 hrs by MTT assay relative to control; type: toxicity, cell-based; conditions: read-out: Activity
[3] = target: T1, Inhibitor of nuclear factor kappa-B kinase subunit beta (Mus musculus) (UniProt O88351); experiment: Inhibition of IkappaB phosphorylation in LPS-stimulated mouse BV-2 cells pretreated for 1 hr followed by LPS stimulation and measured after 24 hrs by Western blot analysis; type: cell-based; conditions: dose 1-10 µM, time 25.0 hrs, DDE = dose-dependent effect
T1 sequence (whole entry): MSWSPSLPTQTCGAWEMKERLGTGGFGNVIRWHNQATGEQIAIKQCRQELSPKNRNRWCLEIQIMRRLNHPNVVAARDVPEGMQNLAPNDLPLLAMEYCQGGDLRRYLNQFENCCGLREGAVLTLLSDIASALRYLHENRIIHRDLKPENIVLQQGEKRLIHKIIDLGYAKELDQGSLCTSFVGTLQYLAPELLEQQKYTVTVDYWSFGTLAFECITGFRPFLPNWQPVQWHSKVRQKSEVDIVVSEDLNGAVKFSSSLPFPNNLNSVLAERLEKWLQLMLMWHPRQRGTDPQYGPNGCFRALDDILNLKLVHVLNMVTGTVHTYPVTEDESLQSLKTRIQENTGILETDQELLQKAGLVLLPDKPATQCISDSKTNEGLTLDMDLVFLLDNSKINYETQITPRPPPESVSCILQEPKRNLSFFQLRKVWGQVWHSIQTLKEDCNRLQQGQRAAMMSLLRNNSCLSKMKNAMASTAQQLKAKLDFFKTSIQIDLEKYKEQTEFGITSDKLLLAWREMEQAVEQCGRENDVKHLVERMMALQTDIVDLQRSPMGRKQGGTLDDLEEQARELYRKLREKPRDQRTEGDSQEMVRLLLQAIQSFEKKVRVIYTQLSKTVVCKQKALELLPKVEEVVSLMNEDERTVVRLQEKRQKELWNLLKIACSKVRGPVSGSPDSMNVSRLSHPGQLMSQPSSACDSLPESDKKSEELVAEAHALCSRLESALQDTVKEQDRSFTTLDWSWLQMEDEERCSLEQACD

[4] = test system: Mus musculus; experiment: Anti-alzheimer activity against scopolamine-induced cognitive dysfunction C57BL/6 mouse model assessed as improvement in cognitive impairment by measuring increase in number of platform crossing at 30 mg/kg, IG administered for 7 days followed by scopolamine stimulation and measured after 4 days by Morris water maze test; type: functional, organism-based; conditions: time 11.0 day
[5] = Metal chelating activity assessed as Cu2+-compound complex formation by measuring reduction in maximum absorbance intensity at 20 uM incubated for 1 hr by UV-visible spectrophotometry
[6] = test system: SH-SY5Y; experiment: Inhibition of H2O2-induced ROS production in human SH-SY5Y cells assessed as reduction in ROS accumulation at 1 to 50 uM pretreated for 6 hrs followed by H2O2 stimulation and measured after 18 hrs by DCFH-DA staining based fluorescence assay; type: functional, cell-based; conditions: dose 1-50 µM, time 24.0 hrs
[7] = test system: BV-2; experiment: Downregulation of iNOS protein expression in LPS-stimulated mouse BV-2 cells preincubated for 1 hr followed by LPS stimulation and measured after 24 hrs by Western blot analysis; type: functional, cell-based; conditions: dose 1-10 µM, time 25.0 hrs, DDE = dose-dependent effect
[8] = Antioxidant activity assessed as DPPH radical scavenging activity at 1000 uM incubated for 2 hrs under dark condition by microplate reader method relative to control; type: functional
[9] = test system: P-glycoprotein; experiment: in vitro; conditions: dog, MDCK-MDR1
Description: Substrate activity at P-glycoprotein in MDCKII-MDR1 cells assessed as efflux ratio apparent permeability across basolateral to apical side over apical to basolateral side at 75 uM incubated for 2 hrs

[10] = Inhibition of LPS-induced IL-1beta secretion in mouse BV-2 cells preincubated for 1 hr followed by LPS stimulation and measured after 24 hrs by ELISA; type: functional, cell-based
[11] = target: Amyloid-beta precursor protein (Homo sapiens) (UniProt P05067); experiment: Inhibition of amyloid beta (1 to 42 ) (unknown origin) self aggregation at 100 uM measured after 48 hrs by transmission electron microscopic analysis
[12] = Toxicity in C57BL/6 mouse assessed as abnormal fluctuations in body weight at 10 to 30 mg/kg, IG measured after 7 days; type: organism-based; conditions: in vivo, po, 168 h, dose 10-30 mg/kg, time 7 day
[13] = Toxicity in C57BL/6 mouse model of scopolamine-induced Alzheimer's disease assessed as changes in swimming speed at 10 to 30 mg/kg, IG measured after 7 days; type: organism-based; conditions: in vivo, po, 168 h, dose 10-30 mg/kg, time 7 day
[14] = Antioxidant activity assessed as DPPH radical scavenging activity at 10 uM incubated for 2 hrs under dark condition by microplate reader method relative to control; type: functional
[15] = Inhibition of LPS-induced TNF-alpha secretion in mouse BV-2 cells preincubated for 1 hr followed by LPS stimulation and measured after 24 hrs by ELISA; type: functional, cell-based
[16] = test system: BV-2; experiment: Inhibition of NF-kappaB in LPS-stimulated mouse BV-2 cells assessed as reduction in translocation of p65 NF-kappaB from cytoplasm to nucleus at 1 to 10 uM pretreated for 1 hr followed by LPS stimulation and measured after 24 hrs; type: cell-based; conditions: dose 1-10 µM, time 25.0 hrs
[17] = test system: PC-12; experiment: Neuroprotective activity against H202-induced cell death in rat PC-12 cells assessed as cell viability at 5 uM pretreated for 3 hrs followed by H2O2 stimulation and measured after 24 hrs by MTT assay relative to control; type: functional; conditions: time 27 hrs, read-out: Activity
[18] = test system: Mus musculus; experiment: Anti-alzheimer activity against scopolamine-induced cognitive dysfunction C57BL/6 mouse model assessed as reduction in escape latency time administered intragastrically for 7 days followed by scopolamine stimulation and measured after 4 days by Morris water maze test; type: functional, organism-based; conditions: dose 10-30 mg/kg, route ig, time 11.0 day, DDE = dose-dependent effect
[19] = in vitro; conditions: dog, MDCK-MDR1
Description: Apparent permeability across basolateral to apical side in MDCKII-MDR1 cells at 75 uM incubated for 2 hrs

[20] = target: Cholinesterase (Equus caballus) (UniProt P81908); experiment: Mixed type inhibition of equine serum BuChE assessed as decrease in Vmax with increase in Km at 0.5 to 2 uM using varying level of butyrylthiocholine iodide as substrate by Lineweaver-Burk plot double reciprocal analysis; conditions: dose 0.5-2 µM
[21] = in vitro; conditions: dog, MDCK-MDR1; remark: listed apart in the source
Description: Apparent permeability across apical to basolateral side in MDCKII-MDR1 cells at 75 uM incubated for 2 hrs

[22] = test system: PC-12; experiment: Neuroprotective activity against H202-induced cell death in rat PC-12 cells assessed as cell viability at 20 uM pretreated for 3 hrs followed by H2O2 stimulation and measured after 24 hrs by MTT assay relative to control; type: functional; conditions: time 27 hrs, read-out: Activity
[23] = test system: PC-12; experiment: Inhibition of H2O2-induced ROS production in rat PC-12 cells assessed as reduction in ROS accumulation at 1 to 50 uM pretreated for 6 hrs followed by H2O2 stimulation and measured after 18 hrs by DCFH-DA staining based fluorescence assay; type: functional, cell-based; conditions: dose 1-50 µM, time 24.0 hrs
[24] = target: T2, Cholinesterase (Equus caballus, UniProt P81908); experiment: Mixed type inhibition of equine serum BuChE assessed as inhibition constant using varying level of butyrylthiocholine iodide as substrate by Lineweaver-Burk plot double reciprocal analysis
[25] = target: T1, Inhibitor of nuclear factor kappa-B kinase subunit beta (Mus musculus); experiment: Inhibition of IkappaB activation in LPS-stimulated mouse BV-2 cells pretreated for 1 hr followed by LPS stimulation and measured after 24 hrs by Western blot analysis; type: cell-based; conditions: dose 1-10 µM, time 25.0 hrs, DDE = dose-dependent effect
[26] = target: Transcription factor p65 (Mus musculus) (UniProt Q04207); experiment: Inhibition of p65 phosphorylation in LPS-stimulated mouse BV-2 cells at 1 to 10 uM pretreated for 1 hr followed by LPS stimulation and measured after 24 hrs by Western blot analysis; type: cell-based; conditions: dose 1-10 µM, time 25.0 hrs
[27] = target: T2, Cholinesterase
Description: Inhibition of equine serum BuChE using butyrylthiocholine iodide as substrate preincubated for 20 mins followed by substrate addition and measured after 5 mins by DTNB-reagent based Ellman's method

[28] = cells; conditions: Mus musculus, BV-2
Description: Inhibition of NO production in LPS-induced mouse BV-2 cells pretreated for 1 hr followed by LPS stimulation and measured after 24 hrs by ELISA

[29] = target: Acetylcholinesterase (Electrophorus electricus, UniProt O42275); experiment: Inhibition of electric eel AChE using acetylthiocholine iodide as substrate preincubated for 20 mins followed by substrate addition and measured after 5 mins by DTNB-reagent based Ellman's method
[30] = test system: BV-2; experiment: Downregulation of COX-2 protein expression in LPS-stimulated mouse BV-2 cells preincubated for 1 hr followed by LPS stimulation and measured after 24 hrs by Western blot analysis; type: functional, cell-based; conditions: dose 1-10 µM, time 25.0 hrs, DDE = dose-dependent effect
[31] = Cytotoxicity against rat PC-12 cells assessed as cell viability at 25 uM incubated for 24 hrs by MTT assay relative to control; type: toxicity, cell-based; conditions: read-out: Activity

T2 sequence (P81908 whole entry): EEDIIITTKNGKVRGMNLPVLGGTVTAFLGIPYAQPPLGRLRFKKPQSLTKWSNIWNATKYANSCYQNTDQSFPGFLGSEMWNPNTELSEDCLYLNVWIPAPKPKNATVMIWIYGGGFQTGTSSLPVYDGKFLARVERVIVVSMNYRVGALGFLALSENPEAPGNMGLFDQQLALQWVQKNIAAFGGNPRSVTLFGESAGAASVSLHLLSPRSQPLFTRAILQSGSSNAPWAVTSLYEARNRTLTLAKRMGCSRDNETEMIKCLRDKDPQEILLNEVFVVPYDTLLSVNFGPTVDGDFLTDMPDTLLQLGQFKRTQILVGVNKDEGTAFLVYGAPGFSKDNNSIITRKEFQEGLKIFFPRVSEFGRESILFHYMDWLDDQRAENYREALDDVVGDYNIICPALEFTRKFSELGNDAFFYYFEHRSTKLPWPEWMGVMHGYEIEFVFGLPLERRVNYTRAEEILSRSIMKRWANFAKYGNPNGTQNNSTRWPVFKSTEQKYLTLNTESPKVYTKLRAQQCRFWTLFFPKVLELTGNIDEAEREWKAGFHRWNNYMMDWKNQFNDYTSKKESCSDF
Sequence of Acetylcholinesterase (O42275 whole entry): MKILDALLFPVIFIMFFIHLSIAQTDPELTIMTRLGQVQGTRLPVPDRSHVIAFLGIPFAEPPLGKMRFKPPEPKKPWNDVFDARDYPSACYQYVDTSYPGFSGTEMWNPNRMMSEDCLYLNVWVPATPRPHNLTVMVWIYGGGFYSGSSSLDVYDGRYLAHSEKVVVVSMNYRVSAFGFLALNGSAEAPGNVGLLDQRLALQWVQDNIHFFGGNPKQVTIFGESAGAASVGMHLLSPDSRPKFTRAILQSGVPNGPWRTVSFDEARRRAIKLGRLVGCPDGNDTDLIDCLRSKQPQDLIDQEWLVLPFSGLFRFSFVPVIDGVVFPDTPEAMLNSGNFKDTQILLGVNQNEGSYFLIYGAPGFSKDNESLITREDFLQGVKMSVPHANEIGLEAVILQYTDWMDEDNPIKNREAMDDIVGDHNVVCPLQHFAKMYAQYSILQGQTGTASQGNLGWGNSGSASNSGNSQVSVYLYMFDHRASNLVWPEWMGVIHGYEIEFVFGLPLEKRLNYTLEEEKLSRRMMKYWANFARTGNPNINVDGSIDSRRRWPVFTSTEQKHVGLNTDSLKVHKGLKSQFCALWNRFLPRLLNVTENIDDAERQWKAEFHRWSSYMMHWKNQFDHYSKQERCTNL
Sequence of Amyloid-beta precursor protein (Homo sapiens) (P05067 whole entry): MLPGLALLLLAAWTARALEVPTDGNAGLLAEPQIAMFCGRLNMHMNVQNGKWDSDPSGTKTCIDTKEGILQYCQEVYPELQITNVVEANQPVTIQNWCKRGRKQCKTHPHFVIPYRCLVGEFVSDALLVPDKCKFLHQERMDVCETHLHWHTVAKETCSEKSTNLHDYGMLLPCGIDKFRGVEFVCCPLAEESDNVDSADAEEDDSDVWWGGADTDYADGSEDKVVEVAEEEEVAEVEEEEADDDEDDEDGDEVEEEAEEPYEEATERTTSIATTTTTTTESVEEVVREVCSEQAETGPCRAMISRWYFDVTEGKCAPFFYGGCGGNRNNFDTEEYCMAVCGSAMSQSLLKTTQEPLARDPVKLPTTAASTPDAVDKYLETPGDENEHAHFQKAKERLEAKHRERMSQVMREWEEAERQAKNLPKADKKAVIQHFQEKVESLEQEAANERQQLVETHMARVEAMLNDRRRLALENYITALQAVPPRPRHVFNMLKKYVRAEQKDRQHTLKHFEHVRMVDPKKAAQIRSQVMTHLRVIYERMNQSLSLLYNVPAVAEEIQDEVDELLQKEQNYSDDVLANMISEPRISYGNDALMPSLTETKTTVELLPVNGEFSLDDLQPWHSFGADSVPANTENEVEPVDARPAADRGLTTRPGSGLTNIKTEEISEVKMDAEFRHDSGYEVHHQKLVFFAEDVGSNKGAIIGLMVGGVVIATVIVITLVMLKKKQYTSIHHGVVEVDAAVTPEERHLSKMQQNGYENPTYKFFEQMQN
Sequence of Cholinesterase (Equus caballus) (P81908 whole entry): as the sequence (P81908 whole entry) above
Sequence of Transcription factor p65 (Mus musculus) (Q04207 whole entry): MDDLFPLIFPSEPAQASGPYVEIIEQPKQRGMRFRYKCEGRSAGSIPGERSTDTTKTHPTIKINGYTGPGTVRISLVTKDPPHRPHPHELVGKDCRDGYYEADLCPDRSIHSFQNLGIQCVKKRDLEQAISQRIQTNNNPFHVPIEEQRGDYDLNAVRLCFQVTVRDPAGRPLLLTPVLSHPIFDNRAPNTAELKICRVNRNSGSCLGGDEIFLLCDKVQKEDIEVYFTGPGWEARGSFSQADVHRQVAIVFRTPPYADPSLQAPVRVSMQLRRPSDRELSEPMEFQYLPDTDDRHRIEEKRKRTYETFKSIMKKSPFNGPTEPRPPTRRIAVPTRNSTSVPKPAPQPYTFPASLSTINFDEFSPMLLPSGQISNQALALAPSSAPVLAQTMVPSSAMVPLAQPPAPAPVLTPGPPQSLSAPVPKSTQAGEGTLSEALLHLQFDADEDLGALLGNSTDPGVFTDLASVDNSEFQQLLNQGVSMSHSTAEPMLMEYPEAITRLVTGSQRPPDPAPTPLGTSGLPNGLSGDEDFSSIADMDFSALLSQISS

O=C(CNc1ccc(F)cc1)Nc1ccc(-c2nc(-c3ccnc(Nc4ccc(OC(F)(F)F)cc4)c3)no2)cc1
LD50 at 168 h [1]: 75.4 mg/kg
viability at 24 h, 50 µM [2]: 98.8%
inhibition [3]: Dde
Activity [4]: Active
Activity [5]: Active
inhibition [6]: Active
Activity [7]: Dde
Activity [8]: 34.6%
efflux ratio at 2 h, 75 µM [9]: 0.95
IC50 [10]: 1.61 µM
inhibition [11]: Active
Activity [12]: Non-Toxic
Activity [13]: Non-Toxic
Activity [14]: 86.1%
IC50 [15]: 4.15 µM
inhibition [16]: Active
viability at 5 µM [17]: 46.5%
Activity [18]: Dde
Papp B→A at 2 h, 75 µM [19]: 16.3 ×10⁻⁶ cm/s
inhibition [20]: Active
Papp A→B at 2 h, 75 µM [21]: 17.2 ×10⁻⁶ cm/s
viability at 20 µM [22]: 66.4%
inhibition [23]: Active
Ki [24]: 0.61 µM
inhibition [25]: Dde
inhibition [26]: Active
IC50 [27]: 1.28 µM
IC50 [28]: 0.67 µM
IC50 [29]: > 50 µM
Activity [30]: Dde
viability at 24 h, 25 µM [31]: 99.7%
